In general, IC50 refers to the concentration that inhibits the measured activity by half. A lower IC50 goes with greater potency.

The target in one test is T1, Full-length, GST-tagged, human CaMKIIδ (Homo sapiens, UniProt Q13557).
T1 construct: Full-Length, Glutathione-S-Transferase(GST)-Tagged, Human CaMKIIδ was purchased from Carna Biosciences; purchased Carna Biosciences 02-111
T1 sequence (Q13557 1-478 isoform Q13557-12): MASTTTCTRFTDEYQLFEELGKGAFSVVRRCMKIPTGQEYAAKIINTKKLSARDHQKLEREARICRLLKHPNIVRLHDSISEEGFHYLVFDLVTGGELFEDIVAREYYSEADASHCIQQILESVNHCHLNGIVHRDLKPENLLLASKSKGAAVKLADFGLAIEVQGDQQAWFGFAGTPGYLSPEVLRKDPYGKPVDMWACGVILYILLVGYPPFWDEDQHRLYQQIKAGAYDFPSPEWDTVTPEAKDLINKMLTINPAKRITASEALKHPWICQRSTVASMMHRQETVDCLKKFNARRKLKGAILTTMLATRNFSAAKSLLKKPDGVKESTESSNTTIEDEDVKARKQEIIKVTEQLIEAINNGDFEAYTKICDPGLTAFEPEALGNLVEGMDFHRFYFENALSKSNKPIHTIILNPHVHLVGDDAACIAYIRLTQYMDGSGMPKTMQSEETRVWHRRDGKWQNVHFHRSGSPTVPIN
Briefly: CaMKIIδ binding assay (TR-FRET with BODIPY-labeled probe ligand). The settings on record: CaMKIIδ binding assay; activity class per Table 2. The method in brief:
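TR-FRET probe-displacement binding: 0.5 nM GST-CaMKIIδ with 10 μg/mL calmodulin, 1 mM CaCl2, 0.21 nM Tb-anti-GST Ab and 300 nM BODIPY probe in HEPES pH 7.6 buffer. Eight-point 4-fold dilutions, 1 hr at room temperature. IC50 from logistic fit; 100% inhibition defined by 3 μM parent compound.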
A general note: In TR-FRET formats the signal depends on donor and acceptor labels being close together.
`CCn1ncc(Nc2ncc(-c3ccc(Cl)c(O[C@@H](C)Cn4cnnn4)c3)cn2)c1C(=O)N1CCC(N2CCOCC2)CC1` [Example 880, (S)-(4-((5-(3-((1-(1H-tetrazol-1-yl)propan-2-yl)oxy)-4-chlorophenyl)pyrimidin-2-yl)amino)-1-ethyl-1H-pyrazol-5-yl) (4-morpholinopiperidin-1-yl)methanone] showed an IC50 not below 100 nM.

`C[C@@H](COC(F)F)Oc1cc(-c2cnc(Nc3cn(C4CC5(C4)CN(C4CCOCC4)C5)nc3OCC(F)(F)F)nc2)ccc1C#N` [Example 881, (S)-2-((1-(difluoromethoxy)propan-2-yl)oxy)-4-(2-((1-(2-(tetrahydro-2H-pyran-4-yl)-2-azaspiro[3.3]heptan-6-yl)-3-(2,2,2-trifluoroethoxy)-1H-pyrazol-4-yl)amino)pyrimidin-5-yl)benzonitrile] gave an IC50 of less than 10 nM.

In turn, `C[C@@H](Cn1cnnn1)Oc1cc(-c2cnc(Nc3cn(CC4(O)CCNCC4)nc3C(F)(F)F)nc2)ccc1Cl` [Example 882, (S)-4-((4-((5-(3-((1-(1H-tetrazol-1-yl)propan-2-yl)oxy)-4-chlorophenyl)pyrimidin-2-yl)amino)-3-(trifluoromethyl)-1H-pyrazol-1-yl)methyl)piperidin-4-ol] had an IC50 of less than 10 nM.

In the case of `C[C@@H](Cn1cnnn1)Oc1cc(-c2cnc(Nc3cn(C(C)(C)CO)nc3OCC(F)(F)F)nc2)ccc1Cl` [Example 883, (S)-2-(4-((5-(3-((1-(1H-tetrazol-1-yl)propan-2-yl)oxy)-4-chlorophenyl)pyrimidin-2-yl)amino)-3-(2,2,2-trifluoroethoxy)-1H-pyrazol-1-yl)-2-methylpropan-1-ol], the IC50 is less than 10 nM.

The compound `C[C@@H](Cn1cnnn1)Oc1cc(-c2cnc(Nc3cn(CCNS(C)(=O)=O)nc3C(F)(F)F)nc2)ccc1Cl` [Example 884, (S)-N-(2-(4-((5-(3-((1-(1H-tetrazol-1-yl)propan-2-yl)oxy)-4-chlorophenyl)pyrimidin-2-yl)amino)-3-(trifluoromethyl)-1H-pyrazol-1-yl)ethyl)methanesulfonamide] displayed an IC50 of 10 to 100 nM.

The test is the same for the next values; noted with them: Table 2; CaMKIIδ binding assay, activity given as class A/B/C.
Compound `C[C@@H](Cn1cnnn1)Oc1cc(-c2cnc(Nc3cn(CC(C)(C)N)nc3C(F)(F)F)nc2)ccc1Cl` [Example 861, (S)-5-(3-((1-(1H-tetrazol-1-yl)propan-2-yl)oxy)-4-chlorophenyl)-N-(1-(2-amino-2-methylpropyl)-3-(trifluoromethyl)-1H-pyrazol-4-yl)pyrimidin-2-amine] registered an IC50 of less than 10 nM.

In the case of `CC(=O)NC(C)(C)Cn1cc(Nc2ncc(-c3ccc(Cl)c(O[C@@H](C)Cn4cnnn4)c3)cn2)c(C(F)(F)F)n1` [Example 862, (S)-N-(1-(4-((5-(3-((1-(1H-tetrazol-1-yl)propan-2-yl)oxy)-4-chlorophenyl)pyrimidin-2-yl)amino)-3-(trifluoromethyl)-1H-pyrazol-1-yl)-2-methylpropan-2-yl)acetamide], the IC50 was 10 to 100 nM.

`C[C@@H](Cn1cnnn1)Oc1cc(-c2cnc(Nc3cn([C@H]4CC[C@H](N5CC(F)C5)CC4)nc3OC3COC3)nc2)ccc1Cl` [Example 863, 5-(3-(((S)-1-(1H-tetrazol-1-yl)propan-2-yl)oxy)-4-chlorophenyl)-N-(1-(trans-4-(3-fluoroazetidin-1-yl)cyclohexyl)-3-(oxetan-3-yloxy)-1H-pyrazol-4-yl)pyrimidin-2-amine] yielded an IC50 of less than 10 nM.

Take `C[C@@H](Cn1cnnn1)Oc1cc(-c2cnc(Nc3cn([C@H]4CC[C@H](N5CCC(F)(F)C5)CC4)nc3OC3COC3)nc2)ccc1Cl` [Example 864, 5-(3-(((S)-1-(1H-tetrazol-1-yl)propan-2-yl)oxy)-4-chlorophenyl)-N-(1-(trans-4-(3,3-difluoropyrrolidin-1-yl)cyclohexyl)-3-(oxetan-3-yloxy)-1H-pyrazol-4-yl)pyrimidin-2-amine]: the 50% inhibitory concentration (IC50) is less than 10 nM.

Compound `CCn1ncc(Nc2ncc(-c3ccc(Cl)c(O[C@@H](C)Cn4cnnn4)c3)cn2)c1C(=O)N1CCOCC1` [Example 865, (S)-(4-((5-(3-((1-(1H-tetrazol-1-yl)propan-2-yl)oxy)-4-chlorophenyl)pyrimidin-2-yl)amino)-1-ethyl-1H-pyrazol-5-yl)(morpholino)methanone] registered an IC50 not below 100 nM.

In turn, `CCn1cc(Nc2ncc(-c3ccc(Cl)c(O[C@@H](C)Cn4cnnn4)c3)cn2)c(C(=O)N2CCOCC2)n1` [Example 866, (S)-(4-((5-(3-((1-(1H-tetrazol-1-yl)propan-2-yl)oxy)-4-chlorophenyl)pyrimidin-2-yl)amino)-1-ethyl-1H-pyrazol-3-yl)(morpholino)methanone] came in with an IC50 of 10 to 100 nM.

Compound `COc1ccc(-n2cc(Nc3ncc(-c4ccc(Cl)c(O[C@@H](C)Cn5cnnn5)c4)cn3)c(C(F)(F)F)n2)cn1` [Example 867, (S)-5-(3-((1-(1H-tetrazol-1-yl)propan-2-yl)oxy)-4-chlorophenyl)-N-(1-(6-methoxypyridin-3-yl)-3-(trifluoromethyl)-1H-pyrazol-4-yl)pyrimidin-2-amine] had an IC50 not below 100 nM.

`C[C@@H](Cn1cnnn1)Oc1cc(-c2cnc(Nc3cn(-c4ccc(=O)[nH]c4)nc3C(F)(F)F)nc2)ccc1Cl` [Example 868, (S)-5-(4-((5-(3-((1-(1H-tetrazol-1-yl)propan-2-yl)oxy)-4-chlorophenyl)pyrimidin-2-yl)amino)-3-(trifluoromethyl)-1H-pyrazol-1-yl)pyridin-2(1H)-one]: the IC50 lay in the range of 10 to 100 nM.

In turn, `C[C@@H](Cn1cnnn1)Oc1cc(-c2cnc(Nc3cn([C@H]4CC[C@H](N5CCOCC5)CC4)nc3OC[C@@H]3CC3(F)F)nc2)ccc1Cl` [Example 869] had an IC50 of less than 10 nM.

The compound `C[C@@H](Cn1cnnn1)Oc1cc(-c2cnc(Nc3cn([C@H]4CC[C@@H](N5CCOCC5)CC4)nc3OC[C@@H]3CC3(F)F)nc2)ccc1Cl` [Example 870, 5-(3-(((S)-1-(1H-tetrazol-1-yl)propan-2-yl)oxy)-4-chlorophenyl)-N-(3-(((S)-2,2-difluorocyclopropyl)methoxy)-1-(cis-4-morpholinocyclohexyl)-1H-pyrazol-4-yl)pyrimidin-2-amine] returned an IC50 of less than 10 nM.

`C[C@@H](Cn1cnnn1)Oc1cc(-c2cnc(Nc3cn([C@H]4CC[C@H](N5CCC[C@H]5CO)CC4)nc3OC[C@@H]3CC3(F)F)nc2)ccc1Cl` [Example 871, ((S)-1-(trans-4-(4-((5-(3-(((S)-1-(1H-tetrazol-1-yl)propan-2-yl)oxy)-4-chlorophenyl)pyrimidin-2-yl)amino)-3-(((S)-2,2-difluorocyclopropyl)methoxy)-1H-pyrazol-1-yl)cyclohexyl)pyrrolidin-2-yl)methanol] registered an IC50 of less than 10 nM.

With `CCOC(=O)c1c(Nc2ncc(-c3ccc(Cl)c(O[C@@H](C)Cn4cnnn4)c3)cn2)cnn1CC` [Example 872, ethyl (S)-4-((5-(3-((1-(1H-tetrazol-1-yl)propan-2-yl)oxy)-4-chlorophenyl)pyrimidin-2-yl)amino)-1-ethyl-1H-pyrazole-5-carboxylate], the IC50 is less than 10 nM.

On to `CCOC(=O)c1nn(CC)cc1Nc1ncc(-c2ccc(Cl)c(O[C@@H](C)Cn3cnnn3)c2)cn1` [Example 873, ethyl (S)-4-((5-(3-((1-(1H-tetrazol-1-yl)propan-2-yl)oxy)-4-chlorophenyl)pyrimidin-2-yl)amino)-1-ethyl-1H-pyrazole-3-carboxylate], for which the 50% inhibitory concentration (IC50) is less than 10 nM.

Compound `C[C@@H](Cn1cnnn1)Oc1cc(-c2cnc(Nc3cn(CC4(O)CCN(C(=O)OC(C)(C)C)CC4)nc3C(F)(F)F)nc2)ccc1Cl` [Example 874, tert-butyl (S)-4-((4-((5-(3-((1-(1H-tetrazol-1-yl)propan-2-yl)oxy)-4-chlorophenyl)pyrimidin-2-yl)amino)-3-(trifluoromethyl)-1H-pyrazol-1-yl)methyl)-4-hydroxypiperidine-1-carboxylate] yielded an IC50 of 10 to 100 nM.

Take `CCn1ncc(Nc2ncc(-c3ccc(Cl)c(O[C@@H](C)Cn4cnnn4)c3)cn2)c1C(=O)O` [Example 875, (S)-4-((5-(3-((1-(1H-tetrazol-1-yl)propan-2-yl)oxy)-4-chlorophenyl)pyrimidin-2-yl)amino)-1-ethyl-1H-pyrazole-5-carboxylic acid]: the IC50 was in the range of 10 to 100 nM.

With `CCn1cc(Nc2ncc(-c3ccc(Cl)c(O[C@@H](C)Cn4cnnn4)c3)cn2)c(C(=O)O)n1` [Example 876, (S)-4-((5-(3-((1-(1H-tetrazol-1-yl)propan-2-yl)oxy)-4-chlorophenyl)pyrimidin-2-yl)amino)-1-ethyl-1H-pyrazole-3-carboxylic acid], the IC50 fell in the range of 10 to 100 nM.

The compound `C[C@@H](Cn1cnnn1)Oc1cc(-c2cnc(Nc3cn(CCN)nc3C(F)(F)F)nc2)ccc1Cl` [Example 877, (S)-5-(3-((1-(1H-tetrazol-1-yl)propan-2-yl)oxy)-4-chlorophenyl)-N-(1-(2-aminoethyl)-3-(trifluoromethyl)-1H-pyrazol-4-yl)pyrimidin-2-amine] displayed an IC50 of less than 10 nM.

For `COc1cccc(-n2cc(Nc3ncc(-c4ccc(Cl)c(O[C@@H](C)Cn5cnnn5)c4)cn3)c(OCC(F)(F)F)n2)n1` [Example 878, (S)-5-(3-((1-(1H-tetrazol-1-yl)propan-2-yl)oxy)-4-chlorophenyl)-N-(1-(6-methoxypyridin-2-yl)-3-(2,2,2-trifluoroethoxy)-1H-pyrazol-4-yl)pyrimidin-2-amine], the IC50 is not below 100 nM.

Consider `C[C@@H](Cn1cnnn1)Oc1cc(-c2cnc(Nc3cn(-c4cccc(=O)[nH]4)nc3OCC(F)(F)F)nc2)ccc1Cl` [Example 879, (S)-6-(4-((5-(3-((1-(1H-tetrazol-1-yl)propan-2-yl)oxy)-4-chlorophenyl)pyrimidin-2-yl)amino)-3-(2,2,2-trifluoroethoxy)-1H-pyrazol-1-yl)pyridin-2(1H)-one], for which the 50% inhibitory concentration (IC50) was 10 to 100 nM.

For the origin of these results see patent US10543212B2, “Substituted amines for treating cardiac diseases” (Cardurion Pharmaceuticals, LLC, priority 2017, dated 2020).
